The nature of series [1]: mn = molality of the nth substance listed, in mol/kg. The settings on record: 298.15 K, 101 kPa, Liquid.
The conditions of series [2]: 298.15 K; 101 kPa; Liquid.

As usually defined, the mass density is mass per unit of volume. Broadly, the speed of sound is how fast a sound wave travels through the sample.

SMILES strings stand for the structures. Numbers after ± are expanded uncertainties.

Take `CCCC[N+](CCCC)(CCCC)CCCC.[Br-]` [tetrabutylammonium bromide] + c1ccccc1: the mass density in series [1] (m1 = 0.0154) was determined as 874.64 ± 0.78 kg/m3; in series [1] (m1 = 0.0485), 876.48 ± 0.78 kg/m3; in series [1] (m1 = 0.0662) it was 877.4 ± 0.77 kg/m3; in series [1] (m1 = 0.0827) it was 878.36 ± 0.77 kg/m3; in series [1] (m1 = 0.1724), 883.19 ± 0.76 kg/m3; in series [1] (m1 = 0.3622), 893.1 ± 0.74 kg/m3. Also, the mass density in series [1] (m1 = 0.5773) is given as 903.19 ± 0.72 kg/m3; in series [1] (m1 = 0.8062), 913.08 ± 0.7 kg/m3. The speed of sound in series [1] (m1 = 0.0154) is recorded as 1298.6 ± 2.8 m/s; in series [1] (m1 = 0.0485) it was 1299.4 ± 2.8 m/s; in series [1] (m1 = 0.0662), 1300.6 ± 2.8 m/s; in series [1] (m1 = 0.0827) it was 1300.8 ± 2.8 m/s; in series [1] (m1 = 0.1724), 1301.4 ± 2.8 m/s; in series [1] (m1 = 0.3622) it was 1310.1 ± 2.8 m/s. Moreover, the speed of sound came out at 1316.4 ± 2.8 m/s in series [1] (m1 = 0.5773) and 1324.6 ± 2.9 m/s in series [1] (m1 = 0.8062).
On to `c1ccccc1` [benzene] + CCCC[N+](CCCC)(CCCC)CCCC.[Br-], for which, in series [1] (m2 = 0), the mass density was 873.71 ± 0.78 kg/m3 and the speed of sound is recorded as 1298.2 ± 2.8 m/s.
`ClC(Cl)(Cl)Cl` [tetrachloromethane]: in series [2], the mass density was 1584.35 ± 2.2 kg/m3 and the speed of sound is 921.7 ± 2.4 m/s.
Regarding `ClC(Cl)(Cl)Cl` [tetrachloromethane] + CCCC[N+](CCCC)(CCCC)CCCC.[Br-], the mass density is listed as 1584.35 ± 2.2 kg/m3 in series [1] (m2 = 0); 1578.53 ± 2.2 kg/m3 in series [1] (m2 = 0.0289); 1575.17 ± 2.2 kg/m3 in series [1] (m2 = 0.0459); 1572.21 ± 2.2 kg/m3 in series [1] (m2 = 0.0609); 1569.3 ± 2.2 kg/m3 in series [1] (m2 = 0.0759); 1563.88 ± 2.2 kg/m3 in series [1] (m2 = 0.1041). Further, the mass density in series [1] (m2 = 0.3475) is reported as 1520.79 ± 2 kg/m3; in series [1] (m2 = 0.5626), 1488.36 ± 1.9 kg/m3; in series [1] (m2 = 0.8165) it was 1456.84 ± 1.8 kg/m3. For the same compound, the speed of sound in series [1] (m2 = 0) was 921.7 ± 2.4 m/s; in series [1] (m2 = 0.0289) it was 926.4 ± 2.4 m/s; in series [1] (m2 = 0.0459), 929.4 ± 2.4 m/s; in series [1] (m2 = 0.0609) it was 931.7 ± 2.4 m/s; in series [1] (m2 = 0.0759) it was 933.7 ± 2.4 m/s; in series [1] (m2 = 0.1041), 939.5 ± 2.4 m/s. The speed of sound in series [1] (m2 = 0.3475) is given as 982 ± 2.4 m/s; in series [1] (m2 = 0.5626), 1017.5 ± 2.5 m/s; in series [1] (m2 = 0.8165), 1057.6 ± 2.5 m/s.
As for `c1ccccc1` [benzene], in series [2], the mass density was determined as 873.71 ± 0.78 kg/m3 and the speed of sound came out at 1298.2 ± 2.8 m/s.
